According to patent publication EP0605371A1 (priority 1992, dated 1994):

Tests used:
[1] = test system: patients with systemic scleroderma; format: in vivo
Method: (§1) Treatment with melatonin was administered to ambulant patients with various forms of systemic scleroderma, in various stages of the disease, and to patients with sarcoidosis.
(§2) The patients and methods were as follows:
(§3) Ten patients with systemic scleroderma in an active phase and four patients with pulmonary sarcoidosis were selected.
The clinical characteristics of the patients with systemic scleroderma and the level of activity and severity of the disease were assessed with the aid of a skin score (cf. annexe) and information obtained from lung function tests, a chest X-ray, pulmonary CAT and numerous laboratory tests (antinuclear antibodies (A), A to the extractable nuclear antigen Scl-70, antinucleolar A, anti-DNA A, antimicrosome A, anticentromeric A, ESR, ACE, CRP, gamma globulins).
To assess the effects of the treatment, the skin-score, ESR, ACE, CRP were determined monthly, the lung function tests were performed every 2 months, and chest X-ray and/or thoracic CAT carried out at the end of a 4-month course of treatment.
(§4) When the clinical evaluation had been completed and after all the laboratory tests had been performed, the patients with systemic scleroderma and sarcoidosis received in a daily dose of 20 mg taken by mouth as a single dose between 18.00 and 20.00 hours. This timing was chosen with the aim of interfering as little as possible with the circadian rhythm of endogenous melatonin secretion.
The clinical investigations and laboratory tests performed at the start of the combined treatment therefore served both as a control on the treatment with hydroxychloroquine and to provide the base values for the tests performed during the treatment with melatonin.
(§5) The other patients with systemic scleroderma and those with sarcoidosis received only melatonin.

[2] = test system: patients with pulmonary sarcoidosis; assay: Four-month oral melatonin treatment of patients with pulmonary sarcoidosis; format: in vivo
Method: as §1, §2, §3
The diagnosis was made on the basis of histological tests performed on biopsy samples, the BAL for the T-lymphocyte count and scintigraphy with gallium-67. Overall lung function tests, a chest X-ray and numerous laboratory tests (ACE, blood calcium, urinary calcium, ESR, etc.) were also performed.
The effects of the treatment were evaluated monthly on the basis of any changes in lung function and ACE levels and at the end of the four-month period on the basis of any changes in the radiological findings.
as §4, §5

cancer patients = cancer patients no longer responsive to conventional therapies; cited from earlier work
[3] = test system: patients with Parkinson's disease; details: cited from earlier work
[4] = 20 mg melatonin per day for four months

What does the source list for `COc1ccc2[nH]cc(CCNC(C)=O)c2c1` [melatonin, 5-methoxy-N-acetyltryptamine]?
CRP or gamma globulin values [1, 4]: No significant changes; subjective respiratory disturbances [1, 4]: marked subjective reduction; lung function tests ([1]; 20 mg melatonin per day for four months, ten patients): significant improvement in nine of the ten patients; skin score ([1]; 20 mg melatonin per day for four months, ten patients (FIG.1)): highly positive results; chest X-ray ([1]; after 4 months of treatment, all patients): No significant changes were found in any of the patients; ESR ([1]; throughout the course of treatment, 20 mg per day): It was not possible to demonstrate that the hormone treatment had an effect on this parameter; radiological investigation (changes affecting the hilum and the pulmonary parenchyma) ([2]; end of the four-month course): definitive reduction; lung function tests ([2]; end of the four-month course, four patients): the findings in three patients had returned to normal and the fourth patient showed marked improvement; fall of BAL lymphocyte count ([2]; end of the four-month course, on average): 70%; ACE ([2]; monthly determination, 20 mg per day, all cases (FIG.2)): the values gradually returned to normal; patients' general condition and disease course (cancer patients): the patients' general condition showed improvement and the disease was temporarily stabilized; demonstrable advantages ([3]; daily doses of up to 6 g): no demonstrable advantages; adverse effects ([3]; human, in vivo): no adverse effects
